Data: BindingDB's records for doi:10.1111/j.1747-0285.2009.00852.x (University of Jordan, 2009)

Molecular target: Reverse transcriptase (Human immunodeficiency virus 2, UniProt Q06347)
Assay: In Vitro Enzyme Assay
Settings: pH 7.8; 37 °C
Method: The reverse transcriptase inhibitory activity of compound was evaluated by a non-radioactive colorimetric assay method. This procedure uses RT to synthesize DNA starting from the template/primer hybridpoly (A) x oligo (dT)15 and avoids the use of radio-labeled nucleotides.

Chain of Reverse transcriptase (Q06347 whole entry): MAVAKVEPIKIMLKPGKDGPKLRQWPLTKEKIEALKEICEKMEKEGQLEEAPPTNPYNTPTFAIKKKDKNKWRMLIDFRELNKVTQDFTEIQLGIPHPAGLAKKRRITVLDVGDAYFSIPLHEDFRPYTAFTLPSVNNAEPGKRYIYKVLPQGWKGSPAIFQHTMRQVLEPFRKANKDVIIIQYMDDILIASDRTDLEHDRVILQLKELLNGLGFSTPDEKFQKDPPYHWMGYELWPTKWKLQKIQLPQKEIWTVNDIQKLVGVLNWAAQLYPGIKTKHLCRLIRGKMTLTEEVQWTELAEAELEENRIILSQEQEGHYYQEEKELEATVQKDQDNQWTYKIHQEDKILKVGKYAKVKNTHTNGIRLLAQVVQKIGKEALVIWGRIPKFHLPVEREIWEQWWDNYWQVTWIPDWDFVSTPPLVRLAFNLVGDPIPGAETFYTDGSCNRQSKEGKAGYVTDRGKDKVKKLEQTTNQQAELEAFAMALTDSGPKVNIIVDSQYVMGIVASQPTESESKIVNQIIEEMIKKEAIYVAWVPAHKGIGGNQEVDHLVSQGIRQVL

| IC50 | SMILES |
| --- | --- |
| 335 µM | CCCC(=O)Oc1ccc(C(C)(C)C)cc1Br [NCI Code, 6927] |
| 18.9 µM | CCCCCCc1nc2c([nH]1)c(=O)n(C)c(=O)n2C [NCI Code, 14129] |

Further lines, the compound ahead of its results:

| SMILES | IC50 |
| --- | --- |
| Cc1ccnc2c1NC(=O)c1cccnc1N2C1CC1 [BI-RG-587] | 4.2 µM |
| CCCCN(CCCC)C(=O)c1ccc(Cl)cc1Cl [NCI Code, 6050] | 31.3 µM |
| Cc1ccc(S(=O)(=O)Oc2ccc(Cl)cc2Cl)cc1 [NCI Code, 4179] | 87.1 µM |
